Read-outs that look alike come from different tables or passages of the source.
Experiments:
PTP1B (PTP1B1-321) = target: T1, PTP1B (PTP1B1-321) (Homo sapiens, UniProt P18031); experiment: PTP1B-catalyzed hydrolysis of pNPP in the presence of terpenoids (enzyme kinetics, IC50 from best-fit models); assay type: biochemical, H. sapiens; conditions: for IC50: 15 mM pNPP, 10% DMSO; for Ki: PTP1B1-321
T1 construct: His-tag; made in house; host or cells: E. coli BL21 (DE3), pET21b
T1 sequence (P18031 1-321): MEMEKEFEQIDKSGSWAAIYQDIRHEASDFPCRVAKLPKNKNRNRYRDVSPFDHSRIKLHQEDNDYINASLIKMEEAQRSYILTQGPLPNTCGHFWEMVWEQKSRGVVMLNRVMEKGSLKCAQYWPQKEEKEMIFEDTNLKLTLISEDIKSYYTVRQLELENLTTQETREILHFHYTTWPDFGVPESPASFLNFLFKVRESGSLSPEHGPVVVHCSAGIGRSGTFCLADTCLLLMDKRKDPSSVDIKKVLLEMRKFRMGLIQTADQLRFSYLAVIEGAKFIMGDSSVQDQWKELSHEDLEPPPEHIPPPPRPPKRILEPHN
Procedure: Enzyme kinetics. To examine terpenoid-mediated inhibition, PTP1B-catalyzed hydrolysis of p-nitrophenyl phosphate (pNPP) was measured in the presence of various concentrations of terpenoids. Each reaction included PTP1B ([…]), pNPP (0.33, 0.67, 2, 5, 10, and 15 mM), inhibitors (110 μM, 50 μM, and 15 μM for amorphadiene; 100 μM, 50 μM, and 16.7 μM for taxadiene), and buffer (50 mM HEPES pH=7.5, 0.5 mM TCEP, 50 μg/ml BSA, 10% DMSO). The formation of p-nitrophenol was monitored by measuring absorbance at 405 nm every 10 seconds for 5 minutes on a Spectramax M2 plate reader.
Kinetic models were evaluated in three steps: (i) Initial-rate measurements collected in the absence and presence of inhibitors were fitted to Michaelis-Menten and inhibition models, respectively (here, the nlinfit and fminsearch functions from MATLAB were used). (ii) An F-test was used to compare the mixed model to the single-parameter model with the least sum squared error (here, the fcdf function from MATLAB was used to assign p-values), and the mixed model was accepted when p<0.05.
The MATLAB function “nlparci” was used to determine the confidence intervals of kinetic parameters, and those intervals were propagated to estimate corresponding confidence on IC50's.
Enzyme kinetics. To examine terpenoid-mediated inhibition, we measured PTP-catalyzed hydrolysis of p-nitrophenyl phosphate (pNPP) or 4-methylumbelliferyl phosphate (4-MUP, used when KM for pNPP was large) in the presence of various concentrations of terpenoids. Each reaction included PTP (0.05 μM PTP1B/TCPTP or 0.1 μM SHP1/SHP2 in 50 mM HEPES, 0.5 mM TCEP, 50 μg/ml BSA), pNPP (0.33, 0.67, 2, 5, 10, and 15 mM) or 4-MUP (0.13, 0.27, 0.8, 2.27, 2.93, 4.53, 7.07, and 8 mM), inhibitor (with concentrations listed in the figures), buffer (50 mM HEPES pH=7.3, 50 μg/ml BSA), and DMSO at 10% v/v. We monitored the formation of p-nitrophenol by measuring absorbance at 405 nm every 10 seconds for 5 minutes on a SpectraMax M2 plate reader and the formation of 4-methylumbelliferyl by measuring fluorescence at 450 nm (370 nm ex, 435 nm cutoff, medium gain).
We used a custom MATLAB script to process all raw kinetic data. This script removed all concentration values that fell outside of either (i) the range of our standard curve (absorbance/fluorescence vs. μM; FIG. 39) or (ii) the initial rate regime (>10% of the pNPP or 4-MUP concentration used in the assay). When this step reduced kinetic dataset to fewer than ten points, we re-measured those datasets to collect at least ten. We fit final datasets, in turn, with a linear regression model (using Matlab's backslash operator).
We evaluated kinetic models in three steps: (i) We fit initial-rate measurements collected in the absence and presence of inhibitors to Michaelis-Menten and inhibition models, respectively (here, we used the nlinfit and fminsearch functions from MATLAB; TABLE 12). (ii) We used an F-test to compare the mixed model to the single-parameter model with the least sum squared error (here, we used the fedf function from MATLAB to assign p-values), and we accepted the mixed model when p<0.05.

[1] = test system: insulin receptor (IR) phosphorylation (PTP1B-mediated) in HEK293T/17 cells; experiment: ELISA of insulin receptor (IR) phosphorylation in HEK293T/17 cells; assay type: cell-based; conditions: 3% DMSO, 10 minutes, starved HEK293T/17 cells, vs 3% DMSO control
Description: Analysis of PTP1B inhibition in HEK293TCells. We prepared HEK293T/17 cells for an enzyme-linked immunosorbent assay (ELISA) by growing them in 75 cm^2 culture flasks (Corning) with DMEM media supplemented with 10% FBS, 100 units/ml penicillin, and 100 units/ml streptomycin. We replaced the media every day for 3-5 days until the cells reached 80-100% confluency.
We measured the influence of inhibitors on insulin receptor (IR) phosphorylation by using an IR-specific ELISA (FIG. 35). Briefly, we starved cells for 48 hours in FBS-free media and incubated the with inhibitors (all at 3% DMSO) for 10 minutes. After incubation, we lysed cells with lysis buffer (9803, Cell Signaling Technology) supplemented with 1× halt phosphatase inhibitor cocktail and 1× halt protease inhibitor cocktail (Thermo Fisher Scientific) for 10 min, pelleted the cell debris, and used the lysis buffer to dilute each sample to 60 mg/ml total protein. We measured IR phosphorylation in subsequent dilutions of the 60 mg/ml samples with the PathScan® Phospho-Insulin Receptor β (panTyr) Sandwich ELISA Kit (Cell Signaling Technology; #7082).
Statistical analysis and reproducibility. We determined statistical significance (FIG. 23H) with a two-tailed Student's t-test (details in TABLE 14), and we used an F-test to compare one- and two-parameter models of inhibition (TABLE 12).

PTP1B = target: T2, PTP1B (Homo sapiens, UniProt P18031); experiment: X-ray crystallography of PTP1B soaked with ligand; assay type: binding, H. sapiens
T2 construct: In this study, we used a well-studied truncation variant (i.e., PTP1B1-321); His-tag; made in house; host or cells: E. coli BL21 (DE3), pET21b
T2 sequence (P18031 1-321): T1 sequence (P18031 1-321)
Procedure: X-ray crystallography. We prepared crystals of PTP1B by using hanging drop vapor diffusion. In brief, we added 2 μL of PTP1B (~600 μM PTP1B, 50 mM HEPES, pH 7.3) to 6 μL of crystallization solution (100 mM HEPES, 200 mM magnesium acetate, and 14% polyethylene glycol 8000, pH 7.5) and incubated the resulting droplets over crystallization solution for one week at 4° C. (EasyXtal CrystalSupport, Qiagen). We soaked crystals with ligand by transferring them to droplets formed with 6 μL of crystallization solution and 1 μL of ligand solution (10 mM in DMSO), which we incubated for 2-5 days at 4° C. We prepared all […] for freezing by soaking them in cryoprotectant formed from a 70/30 (v/v) mixture of buffer (100 mM HEPES, 200 mM magnesium acetate, and 25% polyethylene glycol 8000, pH 7.5) and glycerol.
We collected X-ray diffraction data through the Collaborative Crystallography Program at Lawrence Berkeley National Lab (ALS ENABLE, beamline 8.2.1, 100 K, 1.00003 Å). We performed integration, scaling, and merging of X-ray diffraction data using the xia2 software package^79, and we carried out molecular replacement and structure refinement with the PHENIX graphical interface,^80 supplemented with manual model adjustment in COOT^81 and one round of PDB-REDO^82 (the latter, only for the PTP1B-AD complex).

[2] = competitive model of inhibition, read-out: Fit par. Ki, competitive model
[3] = mixed model, uncompetitive constant, read-out: Fit par. Ki,u, mixed model
[4] = noncompetitive model of inhibition, read-out: Fit par. Ki, noncompetitive model
[5] = uncompetitive model of inhibition, read-out: Fit par. Ki, uncompetitive model

SMILES	IC50 (PTP1B (PTP1B1-321); Example 2, HEPES pH 7.3, ± 95% confidence interval) [µM]	Ki (PTP1B (PTP1B1-321); [2]) [µM]	Ki (PTP1B (PTP1B1-321); mixed model, competitive constant, read-out: Fit par. Ki,c, mixed model) [µM]	Ki (PTP1B (PTP1B1-321); [3]) [µM]	Ki (PTP1B (PTP1B1-321); [4]) [µM]	Ki (PTP1B (PTP1B1-321); [5]) [µM]	IR phosphorylation (ELISA signal) ([1]; 930 μM)	IR phosphorylation (ELISA signal) ([1]; 930 μM, listed as DHA)	IC50 (PTP1B (PTP1B1-321); Example 1, HEPES pH 7.5) [µM]	model (mode) of PTP1B inhibition from Michaelis-Menten fits (PTP1B (PTP1B1-321); pNPP initial rates)	IR phosphorylation (ELISA signal) ([1]; 405 μM)	IR phosphorylation (ELISA signal) ([1]; 405 μM, listed as ABOL)	solubility (crystal soaking experiments) (PTP1B)
CC1=C[C@@H]2C(=C(C)CC[C@H]2C(C)C)CC1 [(+)-1 (10),4-cadinadiene]	165 ± 33	14.8	5690	169	190	168							
CC1=C[C@H]2[C@@H](CC1)[C@H](C)CC[C@H]2[C@@H](C)C(=O)O [dihydroartemisinic acid, reference compound]		178		469	541	469	reduction in signal	reduced signals					
CC1=CCC[C@@]2(C)CCC3=C(C)CC[C@@H](C[C@H]12)C3(C)C [taxadiene]									119	mixed inhibition			
CC(C)=CCC[C@](C)(O)[C@@H]1CC=C(C)CC1 [α-bisabolol, reference compound]		178		469	541	469					reduction in signal	reduced signals	soluble

Reference: patent publication US12729458B2, “Discovery and evolution of biologically active metabolites” (The Regents of the University of Colorado, a Body Corporate, priority 2020, dated 2026)
